Where two headings read alike, the source gives them in different places.
Experiments:
[1] = molecular target: T1, Tet(X4) (Escherichia coli, UniProt A0A3T0V9Y5); assay: FP competitive displacement of probe 6; assay type: binding; conditions: for IC50: 25 nM 6, 40 nM Tet(X4), 5 mM MgCl2, 1 μM FAD, 100 mM Tris pH 7.0, 0.01% Triton X-100; for displacement of probe 6 / competitive binding (in words): up to a maximum concentration of 100 μM
Protocol: A 2× solution containing 80 nM Tet(X4), 2 μM FAD and 10 mM MgCl2 in the assay buffer was dispensed into the first 22 columns of a 384-well black, non-binding microtiter plate (Greiner Bio-One), 12.5 μL per well, using a microplate reagent dispenser. A solution of 2 μM FAD and 10 mM MgCl2 in the assay buffer was dispensed into the remaining columns to serve as a no enzyme control. A 3-fold, 10-point dilution series of substrates and inhibitors was made in DMSO in a V-bottom 96-well plate (Greiner Bio-One) with a highest concentration of 5 mM or 0.5 mM. Into one column was added DMSO with no inhibitor or substrate, to serve as a positive control. Tigecycline was included as a reference on every plate to ensure reproducibility. 0.5 μL of each dilution was transferred in quadruplicate to the 384-well plate containing enzyme solution using a CyBi-Well liquid-handling robot (CyBio). A solution of 50 nM 6 in the assay buffer was then dispensed, with 12.5 μL per well. The plate was briefly centrifuged (1000 rpm), then incubated at ambient temperature for 30 min prior to measuring the FP. Data points were normalised between the positive and negative controls. Normalised % response was plotted as a function of log10([Inhibitor]), and the IC50^app was determined by fitting the data to the equation: Y = Bottom + (top-bottom)/(1 + 10^Log(IC50) − X) × HillSlope in GraphPad Prism 9.4.1, where Y = % response and X = log10([Inhibitor]). Wells with unusual fluorescence intensities were manually identified and removed from the analysis. […]

[2] = molecular target: T1, Tet(X4); assay: Absorbance activity assay (tigecycline turnover, A400); assay type: biochemical
Excerpt: We then tested the binding of reported type 1 TDase inhibitors to Tet(X4) (Fig. 3f, ESI Fig. S17 ^†).[33,38,39] […] These compounds gave similar apparent IC50^app values, in accord with trends in IC50 measurements performed by Markley et al.[33] […] We also developed a complementary endpoint activity assay where the turnover of tigecycline by Tet(X4) in a 96-well plate was quenched by addition of 1%v/v formic acid and analysed chromatographically. The peak integrals of tigecycline and its hydroxylated degradation product at 254 nm following UPLC analysis were measured to determine turnover (Fig. 5a). As this method separates components by chromatography, it enables IC50 measurements independent of potential interference from UV-active inhibitors (Fig. 5b). […] The apparent synergy of AZT with tetracyclines against whole cells expressing Tet(X4)[40] is therefore interesting and may derive from the proposed ability of AZT to interfere with DNA synthesis in bacteria,[40,53] or other unidentified mechanisms. […] Note, however, that plumbagin and 2-MNQ are naphthoquinones, which are well-characterised redox-active pan-assay interference (PAINS) moieties.[54]
233 Absorbance Activity Assays
234 A solution containing 100 mM TAPS (pH 8.5), 2 µM FAD, 10 mM MgCl2 and 100 nM Tet(X4) was
235 dispensed into a 384 well µClear plate (Greiner Bio-One), 25 µL per well, using a microplate reagent
236 dispenser. A 3-fold, 10-point dilution series of the substrates and inhibitors was made in DMSO with
237 the highest concentration of 50 mM, unless otherwise stated, and transferred to the enzyme solution in
238 technical quadruplicate using a CyBi-Well (CyBio) liquid-handling robot (1 µL per well). On each plate,
239 a column of no enzyme negative controls and no inhibitor (DMSO only) positive controls were
240 included. The plate was briefly centrifuged (1000 rpm), then incubated (ambient temperature,15 min).
241 A solution containing 100 mM TAPS (pH 8.5), 50 µM tigecycline and 500 µM NADPH was then
242 dispensed, with 25 µL per well. The plate was briefly centrifuged (1000 rpm), then transferred to a
243 CLARIOstar Plus Microplate reader. The absorbance was monitored at wavelength […] over the
244 course of 2 hours (23 flashes / cycle, 180 s cycle time, 41 data points, 25 ° C). The initial rate was
245 calculated by measuring the rate of change of A400 during the initial linear regime. Initial rates were
246 normalised between positive and negative controls. The normalised % response was plotted as a
247 function of log10([Inhibitor]) in molar units, and the IC50 was determined as above. […]

[3] = molecular target: T1, Tet(X4); assay: biochemical
Protocol: We then tested the binding of reported type 1 TDase inhibitors to Tet(X4) (Fig. 3f, ESI Fig. S17 ^†).[33,38,39] […] We also developed a complementary endpoint activity assay where the turnover of tigecycline by Tet(X4) in a 96-well plate was quenched by addition of 1%v/v formic acid and analysed chromatographically. The peak integrals of tigecycline and its hydroxylated degradation product at 254 nm following UPLC analysis were measured to determine turnover (Fig. 5a).
[…] A 3-fold, 10-point dilution series of the substrates and inhibitors was made in DMSO with a top concentration of 10 mM, unless otherwise stated, and transferred to the enzyme solution using a CyBi-Well liquid-handling robot (CyBio), 1 μL per well. On each plate, a column of no enzyme negative controls and no inhibitor (DMSO only) positive controls were included. The plate was incubated at 30 °C for 15 min. A solution containing 100 mM TAPS (pH 8.5), 40 μM tigecycline and 200 μM NADPH was then dispensed, with 49 μL per well. The plate was incubated at 30 °C for 20 min at 600 rpm. 10 μL of 10%v/v formic acid solution was then dispensed into all wells. Samples were analysed using an ACQUITY H-Class PLUS UPLC instrument (Waters) equipped with a pre-equilibrated ACQUITY BEH C18 column ([…], […], Waters) using a gradient of 1–50%v/v acetonitrile with 0.1%v/v formic acid in water with 0.1%v/v formic acid over 1.83 minutes at a flow rate of 0.5 mL min^−1. Instrument control and data processing were performed using MassLynx V4.1 software. The peaks representing tigecycline and 11a-hydroxy-tigecycline were integrated, used to calculate % conversion and then normalised between positive and negative controls. The normalised % response was plotted as a function of log10[Inhibitor], and the IC50 determined as described above.

[4] = tested on: E. coli TOP10 containing plasmid pBAD-TOPO-Tet(X4); assay: Broth microdilution MIC and checkerboard assay; assay type: cell-based, Escherichia coli; conditions: for MIC: Escherichia coli; for Combination (antibiotic/inhibitor) MIC: inhibitor: inhibitor in combination with tigecycline; for Combination (antibiotic/inhibitor) MIC: inhibitor / Combination (antibiotic/inhibitor) MIC: antibiotic: lowest FICI; for Combination (antibiotic/inhibitor) MIC: antibiotic: tigecycline in combination with the inhibitor; for FICI / Outcome: with tigecycline
Excerpt: Tet(X4) was sub-cloned from the Tet(X4) pET28b-(+) expression vector via TOPO cloning. The insert was amplified using the taq polymerase with the forward primer 5′- […]-3′ and the reverse primer 5′- […]-3’. Following PCR purification (Thermo Fisher Scientific), the A-tailed PCR product was ligated into the pBAD-TOPO vector using a TOPO cloning kit (Invitrogen) according to the manufacturer's protocol. Following amplification in E. coli NEB5α cells (NEBiolabs), the fidelity of the insert was confirmed by Sanger sequencing (Eurofins). For microbiological experiments, E. coli TOP10 cells were used as the recipient strain. Cells were plated on Mueller-Hinton agar (MHA) plates containing ampicillin at 100 μg mL^−1. The introduction of pBAD-TOPO-Tet(X4) was confirmed by colony PCR. Strains were stored in a freezer at −80 °C in cryopreservation beads.
MIC tests and checkerboard assays were performed in U-bottom, 96-well microtiter plates using a modified broth microdilution protocol following CLSI guidelines. Cation-adjusted Mueller-Hinton Broth (CAMHB) was prepared fresh on the day of testing.[74] […] Bacterial colonies were selected from an overnight culture on MHA plates (supplemented with 0.2%w/vL-arabinose for E. coli TOP10 containing pBAD-TOPO-Tet(X4)) and were suspended in 0.9% saline solution to achieve a 0.5 McFarland standard. A 100 μL aliquot of this suspension was then diluted into 9.9 mL of CAMHB to yield approximately 1.5 × 10^6 cfu mL^−1. 50 μL of the suspension was then added to each well of a microtiter plates. Plates were incubated at 37 °C for 18 h. At least 2 replicates were conducted for each combination. E. coli TOP10 + pBAD-TOPO-Tet(X4) cells were grown in the absence and presence of 0.2%w/vL-arabinose. Analysis of the MIC and checkerboard results were carried out by visual inspection of growth, with and without resazurin dye, an oxidation–reduction indicator.[75] As a measure of synergy, fractional inhibitory concentration index (FICI) was calculated as FICA + FICB, where FICA and FICB are the MICcombination/MICalone for each agent, respectively.[76] Results were interpreted as follows: synergistic (<0.5), indifferent (1.0–4.0) or antagonistic (>4.0).[64] In cases where the MIC exceeded or was below the measured range, the borderline value was taken to calculate the FIC index.

[5] = 20 μM tigecycline, 50 nM Tet(X4), 100 μM NADPH, 5 mM MgCl2, 1 μM FAD, 100 mM TAPS pH 8.5, read-out: IC50, UPLC assay
[6] = IC50app, Tet(X4) (Polarization)

SMILES | IC50 [3, 5] | IC50 [1, 6] | other results
Cc1c2c(c(O)c3c(O)c(Br)ccc13)C(=O)[C@@]1(O)C(=O)C(C(N)=O)=C(O)[C@@H](N(C)C)[C@@H]1C2 [9-Bromo-anhydrotetracycline] | 2.7 ± 0.5 µM | – | IC50 ([1]; read-out: IC50app, FP assay): 0.0404 ± 0.0105 µM; displacement of probe 6 / competitive binding (in words) [1]: clear dose-dependent displacement; IC50 ([2]; 25 μM tigecycline, 50 nM Tet(X4), 250 μM NADPH, 5 mM MgCl2, 1 μM FAD, 100 mM TAPS pH 8.5, read-out: IC50, Absorbance assay): 4.5 ± 0.6 µM
O=C(NCc1c(F)cc(F)cc1F)c1cn2c(c(O)c1=O)C(=O)N1[C@H]3CC[C@H](C3)O[C@@H]1C2 [Bictegravir] | 76 ± 14 µM | 54.8 ± 10.6 µM | –
CC1=CC(=O)c2c(O)cccc2C1=O [Plumbagin] | 37.2 ± 8.2 µM | – | IC50 ([1]; IC50app, FP assay): > 100 µM; displacement of probe 6 / competitive binding (in words) [1]: minimal competitive binding; IC50 [2]: 49.1 ± 4.9 µM; inhibition in the absorbance assay (in words) ([2]; AZT up to 1 mM): moderate; inhibition in the UPLC assay (in words) ([3]; AZT up to 100 μM): moderate
COc1cc(C)c2c(Oc3cccc(C(F)(F)F)c3)c(OC)cc(NC(C)CCCN)c2n1 (stereo not shown) [Tafenoquine] | 76 ± 2.4 µM | 94.9 ± 64.8 µM | MIC ([4]; read-out: Tet(X) Inhibitor MIC, alone, without L-arabinose induction): 16 mg/L; MIC ([4]; read-out: Tet(X) inhibitor MIC, alone, induced with 0.2%w/v L-arabinose): 16 to 64 mg/L; Tet(X) inhibitor MIC ([4]; alone, induced with 0.2%w/v L-arabinose): 16 mg/L; reduction of the tigecycline MIC ([4]; at high concentrations of inhibitor, 0.2%w/v L-arabinose): 2–4 fold; Combination (antibiotic/inhibitor) MIC: inhibitor ([4]; 0.2%w/v L-arabinose): 4 mg/L; Combination (antibiotic/inhibitor) MIC: inhibitor ([4]; without L-arabinose): 16 mg/L; Combination (antibiotic/inhibitor) MIC: antibiotic ([4]; 0.2%w/v L-arabinose): 2 mg/L; Combination (antibiotic/inhibitor) MIC: antibiotic ([4]; without L-arabinose): 0.25 mg/L; FICI ([4]; 0.2%w/v L-arabinose): 0.8; Outcome ([4]; 0.2%w/v L-arabinose): Indifferent (indifferent (0.5–4.0)); FICI ([4]; without L-arabinose): 2; Outcome ([4]; without L-arabinose): indifferent (indifferent (0.5-4.0))
COc1ccc2c(c1)N(C[C@H](C)CN(C)C)c1ccccc1S2 [Levomepromazine] | > 100 µM | > 100 µM | –
CN(C)CCCN1c2ccccc2Sc2ccccc21 [Promazine] | > 100 µM | > 100 µM | –
CCN(CC)CCNC(=O)c1c(C)[nH]c(/C=C2\C(=O)Nc3ccc(F)cc32)c1C [Sunitinib] | – | 45.6 ± 4 µM | IC50 ([3]; IC50, UPLC assay, 20 μM tigecycline, 50 nM Tet(X4), 100 μM NADPH, 5 mM MgCl2, 1 μM FAD, 100 mM TAPS pH 8.5): > 100 µM
CC(=O)c1ccc2c(c1)N(CCCN1CCN(CCO)CC1)c1ccccc1S2 [Acetophenazine] | > 100 µM | > 100 µM | –
CN(C)CCCN1c2ccccc2Sc2ccc(C(F)(F)F)cc21 [Triflupromazine] | – | > 100 µM | IC50 ([3]; IC50, UPLC assay): 102 ± 29 µM
O=c1c2ccccc2[se]n1-c1ccccc1 [Ebselen] | 4.7 ± 1.5 µM | 40.9 ± 11.4 µM | –
CC(CN(C)C)CN1c2ccccc2S(=O)(=O)c2ccccc21 (stereo not shown) [Oxomemazine] | > 100 µM | > 100 µM | –
c1ccc2c(c1)Nc1ccccc1S2 [Phenothiazine] | 128 ± 13 µM | > 100 µM | –
CN(C)CCCN1c2ccccc2Sc2ccc(Cl)cc21 [Chlorpromazine] | 110 ± 19 µM | > 100 µM | –
Cn1cc(C2=C(c3cn(C4CCN(Cc5ccccn5)CC4)c4ccccc34)C(=O)NC2=O)c2ccccc21 [Enzastaurin] | > 100 µM | 27.8 ± 1.5 µM | –

Reference: article PMC12056667 (Chemical Science, 2025)
